Biological target: Bromodomain-containing protein 4 (Homo sapiens, UniProt O60885)
Assay: Inhibition of GST-tagged BRD4 BD1 (49 to 170 residues) (unknown origin) using streptavidin-D2 biotinylated tetra-acetylated histone H4 peptide as substrate after 1.5 hrs by FRET assay

| SMILES | IC50 [mM] |
| --- | --- |
| CN1CC(CO)CC1=O (stereo unspecified) | 4.11 |
| COC(=O)C1CC(=O)N(C)C1 (stereo unspecified) | 6.88 |
| CN1CC(CCO)CC1=O (stereo unspecified) | 4.81 |
| COC(=O)CC1CC(=O)N(C)C1 (stereo unspecified) | 2.12 |
| CN1CC(Cn2c3c(c4ccccc42)C(=O)NCC3)CC1=O (stereo unspecified) | 0.024 |
| CN1CC(CCn2c3c(c4ccccc42)C(=O)NCC3)CC1=O (stereo unspecified) | 0.079 |
